# Results published in patent US8093028B2, “Engineered glycosyltransferases with expanded substrate specificity” (Wisconsin Alumni Research Foundation, priority 2007, dated 2012).
# Key:
# Type in all cases: biochemical
# OleD P67T/S132F/A242V [1] = target: T1, OleD P67T/S132F/A242V (Streptomyces antibioticus, UniProt Q53685, A242V/P67T/S132F)
# T1 construct: made in house; host or cells: E. coli (site-directed mutant of pET28/OleD)
# Procedure: Kinetic parameters kcat and Km were determined with both 4-Me-umb FIG. 1: 4 and UPDG as variable substrates using assay conditions as described above. […] Each experiment was performed in triplicate. Initial velocities were fitted to the Michaelis-Menten equation using Sigma Plot.
# Enzyme assays were carried out in a total volume of 500 μl 50 mM Tris-HCl (pH 8.0) containing 5 mM MgCl2, and 50 μg pure enzyme. Kinetic parameters kcat and Km were determined with both 4-Me-umb FIG. 1: 4 and UPDG (FIG. 3: 2) as variable substrates. […] Each experiment was performed in triplicate. Initial velocities were fitted to the Michaelis-Menten equation using Sigma Plot.
# WT OleD = target: T2, WT OleD (Streptomyces antibioticus, UniProt Q53685, P55A/R82V/R83E/T84P); test: Fluorescence-based glycosyltransferase assay in E. coli crude cell extracts
# T2 construct: made in house; host or cells: E. coli BL21(DE3)pLysS, plasmid pET28/OleD
# Procedure: Individual colonies were used to inoculate wells of a 96-deep well microtitre plate wherein each well contained 1 ml of LB medium supplemented with 50 μg/ml kanamycin. Culture plates were tightly sealed with AeraSeal™ breathable film (Research Products International Corp.). After cell growth at 37° C. for 18 h with shaking at 350 rpm, 100 μl of each culture was transferred to a fresh deep-well plate containing 1 ml of LB medium supplemented with 50 μg/ml kanamycin. The original plate was sealed and stored at 4° C., or a glycerol copy made by mixing 100 μl of each culture with 100 µl 50% (v/v) glycerol and storing at −80° C. The freshly inoculated plate was incubated at 37° C. for 2-3 h with shaking at 350 rpm. […]
# For the assay, cleared supernatant was mixed with an equal volume (501) of 50 mM Tris-HCl (pH 8.0) containing 10 mM MgCl2, 0.2 mM 4-Me-umb (FIG. 1: 4), and 1.0 mM UPDG (FIG. 3: 2) using a Biomek FX Liquid Handling Workstation (Beckman Coulter, Fullerton, Calif.). Upon mixing, the fluorescence at excitation 350 nm and emission 460 nm was measured using a FLUOstar Optima plate reader (BMG Labtechnologies, Durham, N.C.) and the reactions incubated for 4 h at 30° C., at which time the fluorescence measurement was repeated. Activity of the clones was expressed as the difference in fluorescence intensity between 0 h and 3 h.
# OleD A242V = target: T3, OleD A242V (Streptomyces antibioticus, UniProt Q53685, A242V/P55A/R82V/R83E/T84P); test: Specific activity with novobiocic acid or 4-Me-umb as acceptor and UDP-Glc; details: UDP-Glc donor
# T3 construct: made in house; host or cells: E. coli BL21(DE3)pLysS (error-prone PCR clone in pET28a)
# Procedure: (§1) Determination of specific activity with 1 or 4 as acceptor. Enzyme reactions were carried out in a total volume of 100 μl/50 mM Tris-HCl (pH8.0) containing 5 mM MgCl2, 200 μM (FIG. 9: 1) or (FIG. 9: 4), 5 mM (FIG. 12: 5), and typically 10-50 μg pure enzyme. At a suitable time interval during which rate of product formation was linear with time (typically 2-20 min), reactions were quenched with 100 μl MeOH, and the samples centrifuged at 10,000 g for 10 min. Supernatants were analyzed by analytical reverse-phase HPLC with a Gemini 5μ C18 column (Phenomenex) using a gradient of 10-90% CH3CN in 0.1% trifluoroacetic acid (TFA)/H2O in 20 min, with detection at 254 nm. […] The identity of (FIG. 9: 7) was confirmed by LC-MS and NMR while the […] of glucoside (FIG. 9: 6) was confirmed by co-elution with a commercial standard and LC-MS analysis. HPLC peak areas were integrated, and the product concentrations calculated as a percent of the total peak area. Specific activity was expressed as nmols product formed/min/mg protein.
# OleD G340W = target: T4, OleD G340W (Streptomyces antibioticus, UniProt Q53685, G340W/P55A/R82V/R83E/T84P); test: as above; details: UDP-Glc donor
# T4 construct: made in house; host or cells: E. coli (site-directed mutant of pET28/OleD)
# Procedure: as §1
# OleD I112T = target: T5, OleD I112T (Streptomyces antibioticus, UniProt Q53685, I112T/P55A/R82V/R83E/T84P); test: as above; details: UDP-Glc donor
# T5 construct: made in house; host or cells: E. coli (site-directed mutant of pET28/OleD)
# Procedure: as §1
# OleD P67T = target: T6, OleD P67T (Streptomyces antibioticus, UniProt Q53685, P55A/P67T/R82V/R83E/T84P); test: as above; details: UDP-Glc donor
# T6 construct: made in house; host or cells: E. coli (site-directed mutant of pET28/OleD)
# Procedure: as §1
# OleD S132F = target: T7, OleD S132F (Streptomyces antibioticus, UniProt Q53685, P55A/R82V/R83E/S132F/T84P); test: as above; details: UDP-Glc donor
# T7 construct: made in house; host or cells: E. coli (site-directed mutant of pET28/OleD)
# Procedure: as §1
# OleD P67T/I112K/A242V = OleD P67T/I112K/A242V (Streptomyces antibioticus, UniProt Q53685, A242V/I112K/P67T); test: Specific activity with novobiocic acid as acceptor and UDP-Glc; details: UDP-Glc donor
# Procedure: as §1
# OleD P67T/S132F/A242V [2] = target: T1, OleD P67T/S132F/A242V; test: as above; details: UDP-Glc donor
# Procedure: as §1
compound,measurement,setting,value
"Cc1cc(=O)oc2cc(O)ccc12 [4-Me-umb (4), 7-hydroxy-4-methylcoumarin]",kcat,OleD P67T/S132F/A242V [1]; acceptor 4 varied,0.0247 s⁻¹
same,efficiency of glucosylation compared to the WT enzyme,"OleD P67T/S132F/A242V [1]; kcat/Km, unnatural acceptor 4-methyl-umbelliferone",~60 fold
same,Km,"OleD P67T/S132F/A242V [1]; read-out: apparent Km, named substrate varied, other substrate fixed",140 µM
same,activity in E. coli pET28/OleD crude cell extracts versus extracts not over-expressing OleD,WT OleD,~2 fold
same,"improvement in specific activity, A242V compared to WT OleD",OleD A242V,~2.3 fold
same,"specific activity, G340W compared to WT OleD",OleD G340W,approximately 0.5 fold
same,"specific activity, I112T compared to WT OleD",OleD I112T,approximately 0.5 fold
same,"improvement in specific activity, P67T compared to WT OleD",OleD P67T,approximately 7 fold
same,"improvement in specific activity, S132F compared to WT OleD",OleD S132F,~2.6 fold
"CC(C)=CCc1cc(C(=O)Nc2c(O)c3ccc(O)c(C)c3oc2=O)ccc1O [novobiocic acid (29), novobiocic acid]","improvement in specific activity, A242V compared to WT OleD",OleD A242V,two-three fold
same,"specific activity, G340W compared to WT OleD",OleD G340W,non-beneficial
same,"specific activity, I112T compared to WT OleD",OleD I112T,7.4 fold
same,"improvement in specific activity, P67T compared to WT OleD",OleD P67T,two-three fold
same,"improvement in specific activity, S132F compared to WT OleD",OleD S132F,two-three fold
same,"improvement in specific activity, P67T/I112K/A242V over P67T/S132F/A242V",OleD P67T/I112K/A242V,twenty-eight
same,"improvement, P67T/I112K/A242V over the parent P67T/I112T/A242V",OleD P67T/I112K/A242V; purified enzymes,seven
same,"improvement in glucosylation activity, P67T/S132F/A242V compared to WT OleD",OleD P67T/S132F/A242V [2],five-fold
